Assays:
[1] = Intrinsic clearance in human liver microsomes; type: ADME, microsome; settings: read-out: CLH
[2] = Ratio of drug level in brain to plasma in mouse at 5 mg/kg, ip; type: ADME, organism-based; settings: read-out: BPR
[3] = biological target: 5-hydroxytryptamine receptor 7 (Homo sapiens, UniProt P34969); assay: Binding affinity to 5-HT7 receptor (unknown origin)
[4] = biological target: T1, 5-hydroxytryptamine receptor 7 (Rattus norvegicus, UniProt P32305); assay: Displacement of [3H]lysergide from rat recombinant 5-HT7 receptor expressed in HEK293 cell membranes incubated for 60 mins by radioligand binding assay
T1 sequence (P32305 whole entry): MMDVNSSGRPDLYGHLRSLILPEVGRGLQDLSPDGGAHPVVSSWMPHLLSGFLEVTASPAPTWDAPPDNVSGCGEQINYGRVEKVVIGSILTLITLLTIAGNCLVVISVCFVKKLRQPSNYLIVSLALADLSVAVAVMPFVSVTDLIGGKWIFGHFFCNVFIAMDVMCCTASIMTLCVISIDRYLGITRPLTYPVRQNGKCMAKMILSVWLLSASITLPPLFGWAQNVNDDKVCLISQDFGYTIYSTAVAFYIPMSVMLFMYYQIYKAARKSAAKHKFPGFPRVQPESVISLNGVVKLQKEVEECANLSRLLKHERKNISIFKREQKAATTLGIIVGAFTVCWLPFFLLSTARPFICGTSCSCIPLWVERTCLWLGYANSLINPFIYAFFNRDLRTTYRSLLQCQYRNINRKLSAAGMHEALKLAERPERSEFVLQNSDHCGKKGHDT

[5] = biological target: T2, 5-hydroxytryptamine receptor 1A (Rattus norvegicus, UniProt P19327); assay: Displacement of [3H]-8-OH-DPAT from 5-HT1A in rat hippocampal membranes incubated for 20 mins by radioligand binding assay; type: cell membranes
T2 sequence (P19327 whole entry): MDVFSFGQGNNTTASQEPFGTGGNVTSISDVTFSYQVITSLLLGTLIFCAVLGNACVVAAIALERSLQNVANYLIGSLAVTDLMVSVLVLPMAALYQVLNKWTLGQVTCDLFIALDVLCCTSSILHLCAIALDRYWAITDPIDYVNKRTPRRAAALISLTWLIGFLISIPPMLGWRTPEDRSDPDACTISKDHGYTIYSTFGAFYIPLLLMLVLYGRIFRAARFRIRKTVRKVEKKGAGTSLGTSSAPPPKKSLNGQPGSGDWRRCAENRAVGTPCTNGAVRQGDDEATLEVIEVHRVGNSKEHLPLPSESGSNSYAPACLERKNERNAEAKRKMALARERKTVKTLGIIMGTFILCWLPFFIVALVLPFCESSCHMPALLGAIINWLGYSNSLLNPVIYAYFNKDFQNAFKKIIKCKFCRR

[6] = biological target: T1, 5-hydroxytryptamine receptor 7; assay: Displacement of [3H]5-CT from rat 5-HT7 receptor expressed in HEK293 cell membranes by radioligand binding assay
[7] = biological target: 5-hydroxytryptamine receptor 2A (Homo sapiens, UniProt P28223); assay: Binding affinity to 5-HT2A receptor (unknown origin)
Sequence of 5-hydroxytryptamine receptor 2A (P28223 whole entry): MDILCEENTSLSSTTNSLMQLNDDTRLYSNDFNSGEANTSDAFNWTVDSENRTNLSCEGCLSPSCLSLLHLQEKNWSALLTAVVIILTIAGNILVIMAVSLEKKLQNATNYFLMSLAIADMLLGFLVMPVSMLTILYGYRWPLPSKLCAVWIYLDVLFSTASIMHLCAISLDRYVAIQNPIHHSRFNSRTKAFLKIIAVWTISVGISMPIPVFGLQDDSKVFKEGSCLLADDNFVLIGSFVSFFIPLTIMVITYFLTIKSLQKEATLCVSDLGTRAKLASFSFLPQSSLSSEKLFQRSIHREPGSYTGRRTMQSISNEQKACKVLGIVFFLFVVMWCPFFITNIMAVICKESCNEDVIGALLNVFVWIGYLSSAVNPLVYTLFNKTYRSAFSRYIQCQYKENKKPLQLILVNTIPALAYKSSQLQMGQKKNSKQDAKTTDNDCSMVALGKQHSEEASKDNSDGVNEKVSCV

[8] = biological target: T3, 5-hydroxytryptamine receptor 2C (Homo sapiens, UniProt P28335); assay: Binding affinity to 5-HT2c receptor (unknown origin)
T3 sequence (P28335 whole entry): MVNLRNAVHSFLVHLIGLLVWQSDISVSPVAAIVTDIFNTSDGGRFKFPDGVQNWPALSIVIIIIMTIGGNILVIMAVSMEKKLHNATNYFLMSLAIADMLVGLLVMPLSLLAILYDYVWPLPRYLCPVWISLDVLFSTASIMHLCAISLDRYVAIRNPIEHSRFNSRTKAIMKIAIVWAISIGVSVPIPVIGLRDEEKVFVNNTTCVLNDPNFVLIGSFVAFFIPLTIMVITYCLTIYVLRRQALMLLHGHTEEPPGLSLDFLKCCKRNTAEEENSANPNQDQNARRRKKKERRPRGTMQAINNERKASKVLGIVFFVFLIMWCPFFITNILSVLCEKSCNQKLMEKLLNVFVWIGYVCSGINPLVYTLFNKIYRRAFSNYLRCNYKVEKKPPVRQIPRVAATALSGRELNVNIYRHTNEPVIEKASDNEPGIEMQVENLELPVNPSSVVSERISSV

[9] = biological target: T1, 5-hydroxytryptamine receptor 7; assay: Displacement of [3H]-5-CT from 5-HT7 receptor in rat hypothalamus membranes by Cheng-Prusoff equation analysis; type: cell membranes, Membrane

Sequence of 5-hydroxytryptamine receptor 7 (Homo sapiens, UniProt P34969) (P34969 whole entry): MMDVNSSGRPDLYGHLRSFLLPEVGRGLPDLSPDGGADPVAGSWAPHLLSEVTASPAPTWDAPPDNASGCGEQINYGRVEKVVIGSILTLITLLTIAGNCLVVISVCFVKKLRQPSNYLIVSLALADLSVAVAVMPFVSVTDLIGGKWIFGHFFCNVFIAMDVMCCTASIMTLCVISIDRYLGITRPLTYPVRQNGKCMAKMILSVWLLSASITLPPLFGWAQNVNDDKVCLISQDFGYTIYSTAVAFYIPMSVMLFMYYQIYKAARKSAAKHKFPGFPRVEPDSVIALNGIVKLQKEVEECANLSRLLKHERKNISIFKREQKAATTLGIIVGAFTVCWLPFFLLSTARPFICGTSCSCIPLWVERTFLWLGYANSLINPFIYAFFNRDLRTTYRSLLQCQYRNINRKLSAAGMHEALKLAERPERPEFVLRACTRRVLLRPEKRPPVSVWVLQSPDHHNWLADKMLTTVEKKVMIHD

CCn1cncc1-c1c[nH]c2ccc(OC)cc12
CLint scaled [1]: 3.69 mL/min/kg
Kp [2]: 6.34

Cc1nn(C)c(C)c1-c1cccc(CCN(C)C)c1
Ki [3]: 2.5 nM

CNC(=O)CN1c2ccccc2C2CCN(CCCCC34CCCc5cccc(c53)NC4=O)CC21 (centres undefined)
Ki [3]: 4 nM

COc1cccc(CCN2CCN(c3ccccc3OC)CC2)c1
Ki [4]: 24.5 nM
Ki [5]: 2.37 nM

COc1cccc(CCN2CCN(c3ccccc3-c3ccccc3)CC2)c1
Ki [4]: 7.5 nM
Ki [5]: 20 nM

Clc1ccc(-c2nn(Cc3ccccc3)c3c2CCNCC3)cc1 [JNJ-18038683 FREE BASE]
Ki [6]: 6.5 nM

Cc1nn(C)c(C)c1-c1ccc(O)c(CCN(C)C)c1
Ki [3]: 0.47 nM

Cc1ccc2c(c1)c1c(n2CCc2ccccc2)CCN(C)C1 [MARITUPIRDINE]
Ki [7]: 1.2 to 2 nM
Ki [8]: 1.2 to 2 nM

CCn1cncc1-c1c[nH]c2ccc(I)cc12
CLint scaled [1]: 6.3 mL/min/kg

O=C1c2cccc3cccc(c23)N1CCCCCN1CCN(c2ccccc2)CC1 [UCM-5600]
Ki [9]: 89 nM

Source: ChEMBL document CHEMBL4196098, “Structure-Activity Relationships and Therapeutic Potentials of 5-HT7 Receptor Ligands: An Update” (J Med Chem, 2018)
